The term IC50 denotes the concentration that gives 50% inhibition.

Structures can show the parent of a compound that is named as a salt.

Consider 36 compounds from US8846909B2, “Bicyclic heteroaryl kinase inhibitors and methods of use” (University of Rochester, priority 2010, dated 2014).

T1 sequence (Q16584 whole entry): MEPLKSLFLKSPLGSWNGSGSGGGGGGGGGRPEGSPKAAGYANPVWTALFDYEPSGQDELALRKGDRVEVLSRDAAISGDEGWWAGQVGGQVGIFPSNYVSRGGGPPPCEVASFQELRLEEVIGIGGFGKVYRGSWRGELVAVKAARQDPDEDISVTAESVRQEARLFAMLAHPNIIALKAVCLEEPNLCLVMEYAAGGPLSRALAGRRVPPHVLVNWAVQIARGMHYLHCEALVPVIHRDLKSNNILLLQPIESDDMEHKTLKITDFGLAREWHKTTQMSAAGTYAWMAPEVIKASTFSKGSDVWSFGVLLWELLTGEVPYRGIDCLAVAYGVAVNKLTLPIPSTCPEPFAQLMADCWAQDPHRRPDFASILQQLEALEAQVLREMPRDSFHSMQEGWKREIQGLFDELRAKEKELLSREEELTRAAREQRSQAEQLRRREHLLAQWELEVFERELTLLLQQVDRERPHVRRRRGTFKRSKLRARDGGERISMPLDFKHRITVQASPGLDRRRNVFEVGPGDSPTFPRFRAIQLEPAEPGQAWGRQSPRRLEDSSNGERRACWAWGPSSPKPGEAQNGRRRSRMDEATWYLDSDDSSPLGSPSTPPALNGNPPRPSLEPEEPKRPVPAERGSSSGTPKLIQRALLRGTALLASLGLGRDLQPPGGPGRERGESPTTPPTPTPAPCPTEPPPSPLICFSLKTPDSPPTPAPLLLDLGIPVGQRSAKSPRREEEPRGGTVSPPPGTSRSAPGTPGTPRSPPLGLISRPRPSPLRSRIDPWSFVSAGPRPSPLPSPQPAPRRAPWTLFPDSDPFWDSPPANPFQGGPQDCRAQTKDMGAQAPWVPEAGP

The assay concerns the target T1, MLK3 (Homo sapiens, UniProt Q16584).
T1 construct: purchased Dundee DU8313
As to the kind of experiment: Radiometric filter plate MLK3 assay. Further: 2 µM cold ATP (Km). In kind it is biochemical. The note with it: read-out: MK3 IC50. The procedure:
After a twenty minute incubation, the reactions were washed through filter plates and read on a scintillation counter. Results are shown in Table 10 below, in which +++ indicates ≦0.1 μM, ++ indicates >0.1 μM and ≦1 μM, and + indicates >1 μM.
On to `O=c1[nH]c2ncc(-c3ccc(O)cc3)nc2n1-c1ccc2cn[nH]c2c1` [Example 92, 6-(4-hydroxyphenyl)-1-(1H-indazol-6-yl)-1H-imidazo[4,5-b]pyrazin-2(3H)-one], for which the IC50 was over 1000 nM.
For `COc1cc(OC)c(-c2cnc3[nH]c(=O)n(C4CCCC4)c3n2)c(OC)c1` [Example 94, 1-cyclopentyl-6-(2,4,6-trimethoxyphenyl)-1H-imidazo[4,5-b]pyrazin-2(3H)-one] the value was over 1000 nM.
On to `Cc1cc(C)cc(-c2cnc3[nH]c(=O)n(-c4ccc5cn[nH]c5c4)c3n2)c1` [Example 95, 6-(3,5-dimethylphenyl)-1-(1H-indazol-6-yl)-1H-imidazo[4,5-b]pyrazin-2(3H)-one], for which the IC50 is over 1000 nM.
Consider `O=c1[nH]c2ncc(-c3ccncc3)nc2n1-c1ccc2scnc2c1` [Example 98, 1-(benzo[d]thiazol-5-yl)-6-(pyridin-4-yl)-1H-imidazo[4,5-b]pyrazin-2(3H)-one], for which the IC50 was over 1000 nM.
Then `Cc1cc(C)cc(-c2cnc3[nH]c(=O)n(-c4ccc5scnc5c4)c3n2)c1` [Example 99, 1-(benzo[d]thiazol-5-yl)-6-(3,5-dimethylphenyl)-1H-imidazo[4,5-b]pyrazin-2(3H)-one], with over 1000 nM.
Consider `O=c1[nH]c2ncc(-c3ccc(N4CCOCC4)cc3)nc2n1-c1ccc2scnc2c1` [Example 100, 1-(benzo[d]thiazol-5-yl)-6-(4-morpholinophenyl)-1H-imidazo[4,5-b]pyrazin-2(3H)-one], for which the IC50 is over 1000 nM.
For the compound `COc1cc(-c2cnc3[nH]c(=O)n(C4CCc5ccccc54)c3n2)cc(OC)c1OC` (stereo not drawn) [Example 101, 1-(2,3-dihydro-1H-inden-1-yl)-6-(3,4,5-trimethoxyphenyl)-1H-imidazo[4,5-b]pyrazin-2(3H)-one], the IC50 was over 1000 nM.
Then `COc1cc(-c2cnc3[nH]c(=O)n(-c4ccc5[nH]cnc5c4)c3n2)cc(OC)c1OC` [Example 102, 1-(1H-benzo[d]imidazol-5-yl)-6-(3,4,5-trimethoxyphenyl)-1H-imidazo[4,5-b]pyrazin-2(3H)-one], with under 100 nM; and `COc1cc(-c2cnc3[nH]c(=O)n(-c4ccc(N5CCOCC5)nc4)c3n2)cc(OC)c1OC` [Example 109, 1-(6-morpholinopyridin-3-yl)-6-(3,4,5-trimethoxyphenyl)-1H-imidazo[4,5-b]pyrazin-2(3H)-one], with over 1000 nM; and `COc1cc(-c2cnc3[nH]c(=O)n(C4Cc5ccccc5C4)c3n2)cc(OC)c1OC` [Example 110, 1-(2,3-dihydro-1H-inden-2-yl)-6-(3,4,5-trimethoxyphenyl)-1H-imidazo[4,5-b]pyrazin-2(3H)-one], with under 100 nM.
Then `COc1cc(-c2cnc3[nH]c(=O)n(-c4cnc5[nH]ccc5c4)c3n2)cc(OC)c1OC` [Example 112, 1-(1H-pyrrolo[2,3-b]pyridin-5-yl)-6-(3,4,5-trimethoxyphenyl)-1H-imidazo[4,5-b]pyrazin-2(3H)-one], with under 100 nM; and `COc1cc(-c2cnc3[nH]c(=O)n(-c4ccc5cc[nH]c5c4)c3n2)cc(OC)c1OC` [Example 113, 1-(1H-indol-6-yl)-6-(3,4,5-trimethoxyphenyl)-1H-imidazo[4,5-b]pyrazin-2(3H)-one], with under 100 nM; and `Nc1ccc(-c2cnc3[nH]c(=O)n(C4CCCC4)c3n2)cn1` [Example 117, 6-(6-aminopyridin-3-yl)-1-cyclopentyl-1H-imidazo[4,5-b]pyrazin-2(3H)-one], with over 1000 nM.
Then `COc1cc(-c2nc3c(nc2Cl)[nH]c(=O)n3CC2CC2)cc(OC)c1OC` [Example 119, 5-chloro-1-(cyclopropylmethyl)-6-(3,4,5-trimethoxyphenyl)-1H-imidazo[4,5-b]pyrazin-2(3H)-one], with over 1000 nM.
On to `COc1cc(-c2cnc3c(c2)C(CC2CC2)(CC2CC2)C(=O)N3)cc(OC)c1OC` [Example 122, 3,3-bis(cyclopropylmethyl)-5-(3,4,5-trimethoxyphenyl)-1H-pyrrolo[2,3-b]pyridin-2(3H)-one], for which the IC50 is over 1000 nM.
Then `COc1cc(-c2cnc3c(c2)C(CC2CC2)C(=O)N3)cc(OC)c1OC` (stereo not drawn) [Example 123, 3-(cyclopropylmethyl)-5-(3,4,5-trimethoxyphenyl)-1H-pyrrolo[2,3-b]pyridin-2(3H)-one], with 100 to 1000 nM; and `COc1cc(-c2cnc3[nH]c(=O)n(-c4ccc5[nH]ccc5c4)c3c2)cc(OC)c1OC` [Example 124, 1-(1H-indol-5-yl)-6-(3,4,5-trimethoxyphenyl)-1H-imidazo[4,5-b]pyridin-2(3H)-one], with 100 to 1000 nM.
Then `COc1cc(-c2cnc3[nH]c(=O)n(CC4CC4)c3c2)cc(OC)c1OC` [Example 125, 1-(cyclopropylmethyl)-6-(3,4,5-trimethoxyphenyl)-1H-imidazo[4,5-b]pyridin-2(3H)-one], with over 1000 nM.
For `COc1cc(-c2cnc3ncn(-c4ccc5[nH]ccc5c4)c3n2)cc(OC)c1OC` [Example 126, 1-(1H-indol-5-yl)-6-(3,4,5-trimethoxyphenyl)-1H-imidazo[4,5-b]pyrazine] the value was over 1000 nM.
On to `COc1cc(-c2cnc3[nH]c(=S)n(CC4CC4)c3n2)cc(OC)c1OC` [Example 127, 1-(cyclopropylmethyl)-6-(3,4,5-trimethoxyphenyl)-1H-imidazo[4,5-b]pyrazine-2(3H)-thione], for which the concentration for half-maximal inhibition (IC50) was over 1000 nM.
Turning to `COc1cc(-c2cnc3c(c2)C(=Cc2ccccc2)C(=O)N3)cc(OC)c1OC` [Example 130, 3-benzylidene-5-(3,4,5-trimethoxy-phenyl)-1,3-dihydro-pyrrolo[2,3-b]pyridin-2-one], the IC50 is over 1000 nM.
For the compound `COc1cc(-c2cnc3c(c2)C(=Cc2ccc(C(N)=O)cc2)C(=O)N3)cc(OC)c1OC` [Example 131, 4-[2-oxo-5-(3,4,5-trimethoxy-phenyl)-1,2-dihydro-pyrrolo[2,3-b]pyridin-3-ylidenemethyl]-benzamide], the IC50 was 100 to 1000 nM.
Then `COc1cc(-c2cnc3c(c2)C(=Cc2cccc(C(N)=O)c2)C(=O)N3)cc(OC)c1OC` [Example 132, 3-[2-oxo-5-(3,4,5-trimethoxy-phenyl)-1,2-dihydro-pyrrolo[2,3-b]pyridin-3-ylidenemethyl]-benzamide], with over 1000 nM; and `COc1cc(-c2cnc3c(c2)C(=Cc2ccc(C#N)cc2)C(=O)N3)cc(OC)c1OC` [Example 133, 4-[2-oxo-5-(3,4,5-trimethoxy-phenyl)-1,2-dihydro-pyrrolo[2,3-b]pyridin-3-ylidenemethyl]-benzonitrile], with over 1000 nM.
Then `COc1cc(-c2cnc3c(c2)C(Cc2cccnc2)C(=O)N3)cc(OC)c1OC` (stereo not drawn) [Example 135, 3-pyridin-3-ylmethyl-5-(3,4,5-trimethoxy-phenyl)-1,3-dihydro-pyrrolo[2,3-b]pyridin-2-one], with over 1000 nM.
For the compound `COc1cc(-c2cnc3c(c2)C(Cc2ccncc2)C(=O)N3)cc(OC)c1OC` (stereo not drawn) [Example 136, 3-pyridin-4-ylmethyl-5-(3,4,5-trimethoxy-phenyl)-1,3-dihydro-pyrrolo[2,3-b]pyridin-2-one], the IC50 is over 1000 nM.
Then `COc1cc(-c2cnc3c(c2)C(Cc2ccccc2)C(=O)N3)cc(OC)c1OC` (stereo not drawn) [Example 137, 3-benzyl-5-(3,4,5-trimethoxy-phenyl)-1,3-dihydro-pyrrolo[2,3-b]pyridin-2-one], with over 1000 nM; and `COc1cc(-c2cnc3c(c2)C(Cc2ccc(C(N)=O)cc2)C(=O)N3)cc(OC)c1OC` (stereo not drawn) [Example 138, 4-[2-oxo-5-(3,4,5-trimethoxy-phenyl)-2,3-dihydro-1H-pyrrolo[2,3-b]pyridin-3-ylmethyl]-benzamide], with over 1000 nM.
With `CN1CCN(Cc2ccc(-c3cnc4[nH]cc(-c5ccc6[nH]ccc6c5)c4c3)cc2)CC1=O` [Example 141, 4-{4-[3-(1H-indol-5-yl)-1H-pyrrolo[2,3-b]pyridin-5-yl]-benzyl}-1-methyl-piperazin-2-one], the IC50 is under 100 nM.
Then `O=C1CN(Cc2ccc(-c3cnc4[nH]cc(-c5ccc6[nH]ccc6c5)c4c3)cc2)CCN1` [Example 142, 4-{4-[3-(1H-indol-5-yl)-1H-pyrrolo[2,3-b]pyridin-5-yl]-benzyl}-piperazin-2-one], with under 100 nM; and `CN1CCN(Cc2cccc(-c3cnc4[nH]cc(-c5ccc6[nH]ccc6c5)c4c3)c2)CC1=O` [Example 143, 4-{3-[3-(1H-indol-5-yl)-1H-pyrrolo[2,3-b]pyridin-5-yl]-benzyl}-1-methyl-piperazin-2-one], with under 100 nM.
Take `CC(C)(C)OC(=O)N1CCN(Cc2ccc(-c3cnc4[nH]cc(-c5ccc6[nH]ccc6c5)c4c3)cc2)CC1` [Example 144, 4-{4-[3-(1H-indol-5-yl)-1H-pyrrolo[2,3-b]pyridin-5-yl]-benzyl}-piperazine-1-carboxylic acid tert-butyl ester]: the IC50 was under 100 nM.
For `CN1CCN(C(=O)c2ccc(-c3cnc4[nH]cc(-c5ccc6[nH]ccc6c5)c4c3)cc2)CC1` [Example 145, {4-[3-(1H-indol-5-yl)-1H-pyrrolo[2,3-b]pyridin-5-yl]-phenyl}-(4-methyl-piperazin-1-yl)-methanone] the value was 100 to 1000 nM.
`CC(=O)N1CCN(C(=O)c2ccc(-c3cnc4[nH]cc(-c5ccc6[nH]ccc6c5)c4c3)cc2)CC1` [Example 146, 1-(4-{4-[3-(1H-indol-5-yl)-1H-pyrrolo[2,3-b]pyridin-5-yl]-benzoyl}piperazin-1-yl)-ethanone]: the IC50 is under 100 nM.
Then `CC(C)(C)OC(=O)N1CCN(C(=O)c2ccc(-c3cnc4[nH]cc(-c5ccc(C(N)=O)cc5)c4c3)cc2)CC1` [Example 148, 4-{4-[3-(4-carbamoyl-phenyl)-1H-pyrrolo[2,3-b]pyridin-5-yl]-benzoyl}-piperazine-1-carboxylic acid tert-butyl ester], with under 100 nM.
Regarding `NC(=O)c1ccc(-c2c[nH]c3ncc(-c4ccc(C(=O)N5CCNCC5)cc4)cc23)cc1` [Example 149, 4-{5-[4-(piperazine-1-carbonyl)-phenyl]-1H-pyrrolo[2,3-b]pyridin-3-yl}-benzamide, hydrochloride salt], the IC50 was under 100 nM.
